Source: patent publication US10940139B2, “Compounds that interact with the Ras superfamily for the treatment of cancers, inflammatory diseases, rasopathies, and fibrotic disease” (Shy Therapeutics LLC, priority 2017, dated 2021)

Columns and labels:
[1] = system: TNFα production in RAW 264.7 macrophage cell line; assay: Mouse TNF alpha quantification assay (LPS-stimulated macrophages, ELISA); assay type: cell-based; conditions: RAW264.7, RAW 264.7 murine leukemia virus transformed macrophage cell lines, LPS stimulation, read-out: TNF-α % Inhibition at 30 μM
[2] = system: IL6 production in RAW 264.7 macrophage cell line; assay: Mouse IL6 quantification assay (LPS-stimulated macrophages, ELISA); assay type: cell-based; conditions: RAW264.7, RAW 264.7 murine leukemia virus transformed macrophage cell lines, LPS stimulation, read-out: IL-6 % Inhibition at 30 μM

| Compound | inhibition at 30 µM [1] | inhibition at 30 µM [2] |
| --- | --- | --- |
| COC(=O)c1cncc(C(=O)Nc2nnc(-c3ccccn3)[nH]2)c1 [drawing 1981] | 1 to 25% | 1 to 25% |
| CCc1ccccc1OCC(=O)Nc1nnc(-c2ccccn2)[nH]1 [drawing 1982] | 0% | 26 to 50% |
| Cc1nc(-c2ccccn2)sc1C(=O)Nc1nnc(-c2ccccn2)[nH]1 [drawing 1983] | 0% | 1 to 25% |
| Cc1nc2nc(C(F)(F)F)nn2c(C)c1CC(=O)Nc1nnc(-c2ccccn2)[nH]1 [drawing 1984] | 1 to 25% | 0% |
| COc1cccc(COCC(=O)Nc2nnc(-c3ccccn3)[nH]2)c1 [drawing 1985] | 1 to 25% | 26 to 50% |
| COc1ccccc1C1CC1C(=O)Nc1nnc(-c2ccccn2)[nH]1 (centres unmarked) [drawing 1986] | 1 to 25% | 26 to 50% |
| O=C(Cn1c(=O)[nH]c2ccccc21)Nc1nnc(-c2ccccn2)[nH]1 [drawing 1987] | 1 to 25% | 1 to 25% |
| CN(CC(=O)Nc1nnc(-c2ccccn2)[nH]1)Cc1ccccc1 [drawing 1988] | 1 to 25% | 26 to 50% |
| O=C(Nc1nnc(-c2ccccn2)[nH]1)c1cccc(N2CCCS2(=O)=O)c1 [drawing 1989] | 1 to 25% | 1 to 25% |
| CC(C)C(=O)Nc1nc(CC(=O)Nc2nnc(-c3ccccn3)[nH]2)cs1 [drawing 1990] | 1 to 25% | 0% |
| CC(C)(C)c1nc(C(=O)Nc2nnc(-c3ccccn3)[nH]2)cs1 [drawing 1991] | 0% | 1 to 25% |
| O=C(Nc1nnc(-c2ccccn2)[nH]1)C1=NOC(c2ccccc2)C1 (centres unmarked) [drawing 1992] | 1 to 25% | 26 to 50% |
| O=C(COc1ccccc1)Nc1nnc(-c2ccccn2)[nH]1 [drawing 1993] | 0% | 1 to 25% |
| O=C(Nc1nnc(-c2ccccn2)[nH]1)c1csc(-c2ccco2)n1 [drawing 1994] | 0% | 51 to 75% |
| O=C(Nc1nnc(-c2ccccn2)[nH]1)C1Cc2cc(Cl)ccc2O1 (centres unmarked) [drawing 1995] | 1 to 25% | 51 to 75% |
| O=C(Cc1ccc2c(c1)OCO2)Nc1nnc(-c2ccccn2)[nH]1 [drawing 1996] | 1 to 25% | 26 to 50% |
| O=C(Cc1ccc2c(c1)OCCO2)Nc1nnc(-c2ccccn2)[nH]1 [drawing 1997] | 1 to 25% | 0% |
| N#CCc1ccc(OCC(=O)Nc2nnc(-c3ccccn3)[nH]2)cc1 [drawing 1998] | 1 to 25% | 0% |
| O=C(Nc1nnc(-c2ccccn2)[nH]1)c1ccc(=O)n(CCOc2ccccc2)n1 [drawing 1999] | 0% | 26 to 50% |
| COc1cn(-c2ccccc2)nc1C(=O)Nc1nnc(-c2ccccn2)[nH]1 [drawing 2000] | 0% | 26 to 50% |
| CN(CC(=O)Nc1nnc(-c2ccccn2)[nH]1)S(=O)(=O)c1ccccc1 [drawing 2001] | 0% | 1 to 25% |
| CS(=O)(=O)N1CCCc2cc(C(=O)Nc3nnc(-c4ccccn4)[nH]3)ccc21 [drawing 2002] | 1 to 25% | 26 to 50% |
| O=C(Nc1nnc(-c2ccccn2)[nH]1)c1ccc(=O)[nH]n1 [drawing 2003] | 1 to 25% | 26 to 50% |

| Compound | inhibition at 30 µM [1] | inhibition at 30 µM [2] |
| --- | --- | --- |
| COc1ccc(COCC(=O)Nc2nnc(-c3ccccn3)[nH]2)cc1 [drawing 2004] | 1 to 25% | 26 to 50% |
| O=C(COCCOc1ccccc1)Nc1nnc(-c2ccccn2)[nH]1 [drawing 2005] | 1 to 25% | 0% |
| COc1ccc(OCc2nc(CNCCc3nnc4n3CCC4)cs2)cc1 [drawing 2006] | 0% | 1 to 25% |
| O=C(Nc1nc(-c2ccccn2)cs1)C1COc2ccccc2O1 (centres unmarked) [drawing 2007] | 1 to 25% | 0% |
| Cc1cc(C(=O)Nc2nc(-c3ccccn3)cs2)no1 [drawing 2009] | 0% | 76 to 100% |
| O=C(Cn1c(=O)cnc2ccccc21)Nc1nc(-c2ccccn2)cs1 [drawing 2010] | 0% | 51 to 75% |
| O=C(Nc1nc(-c2ccccn2)cs1)c1ccc2nccnc2c1 [drawing 2011] | 0% | 51 to 75% |
| O=C(Nc1nc(-c2ccccn2)cs1)c1ccc2[nH]cnc2c1 [drawing 2012] | 1 to 25% | 26 to 50% |
| CS(=O)(=O)Cc1ccc(C(=O)Nc2nc(-c3ccccn3)cs2)cc1 [drawing 2013] | 1 to 25% | 0% |
| O=C(Nc1nc(-c2ccccn2)cs1)c1ccccn1 [drawing 2014] | 1 to 25% | 51 to 75% |
| O=C(Cn1cnc2ccccc2c1=O)Nc1nc(-c2ccccn2)cs1 [drawing 2015] | 1 to 25% | 51 to 75% |
| O=C(Nc1nc(-c2ccccn2)cs1)C1CC(=O)N(c2ccc3c(c2)OCCO3)C1 (centres unmarked) [drawing 2016] | 1 to 25% | 26 to 50% |
| O=C(Nc1nc(-c2ccccn2)cs1)c1cccnc1 [drawing 2017] | 1 to 25% | 1 to 25% |
| O=C(Cc1cccc(F)c1)Nc1nc(-c2ccccn2)cs1 [drawing 2018] | 1 to 25% | 1 to 25% |
| O=C(Nc1nc(-c2ccccn2)cs1)c1ccncc1 [drawing 2019] | 1 to 25% | 26 to 50% |
| O=C(Nc1nc(-c2ccccn2)cs1)c1ccc(F)cc1 [drawing 2020] | 26 to 50% | 26 to 50% |
| COc1ccc(-c2csc3[nH]c(-c4ccccn4)nc(=O)c23)cc1 [drawing 2023] | 1 to 25% | 26 to 50% |
| O=c1nc(-c2ccccn2)[nH]c2scc(-c3cccs3)c12 [drawing 2024] | 1 to 25% | 0% |
| O=c1nc(-c2ccccn2)[nH]c2scc(-c3ccccc3Cl)c12 [drawing 2025] | 1 to 25% | 0% |
| Cc1sc2[nH]c(-c3ccccn3)nc(=O)c2c1-c1ccccc1 [drawing 2026] | 1 to 25% | 0% |
| O=c1nc(-c2ccccn2)[nH]c2ccsc12 [drawing 2027] | 0% | 1 to 25% |
| O=c1nc(-c2ccccn2)[nH]c2sc(-c3ccccc3)cc12 [drawing 2028] | 76 to 100% | 51 to 75% |
| CCN(CC)C(=O)c1sc2[nH]c(-c3ccccn3)nc(=O)c2c1C [drawing 2029] | 1 to 25% | 1 to 25% |

| Compound | inhibition at 30 µM [1] | inhibition at 30 µM [2] |
| --- | --- | --- |
| O=c1nc(-c2ccccn2)[nH]c2c1sc1ccccc12 [drawing 2030] | 76 to 100% | 76 to 100% |
| Cc1cc2c(=O)nc(-c3cc(OCC(F)F)ccn3)[nH]c2s1 [drawing 2031] | 1 to 25% | 1 to 25% |
| Cc1nc(-c2ccccn2)nc(O)c1CCC(=O)Nc1cc(F)ccc1F [drawing 2032] | 1 to 25% | 1 to 25% |
| Cc1nc(-c2ccccn2)nc(O)c1CCC(=O)NC1CCc2ccccc21 (centres unmarked) [drawing 2033] | 26 to 50% | 26 to 50% |
| Cc1nc(-c2ccccn2)nc(O)c1CCC(=O)Nc1ccc(C(C)C)cc1 [drawing 2034] | 1 to 25% | 0% |
| Cc1nc(-c2ccccn2)nc(O)c1CCC(=O)NCC1COc2ccccc2O1 (centres unmarked) [drawing 2035] | 1 to 25% | 0% |
| Cc1nc(-c2ccccn2)nc(O)c1CCC(=O)Nc1cccc(OCC(=O)N2CCCC2)c1 [drawing 2036] | 1 to 25% | 0% |
| CCN(CC)S(=O)(=O)c1cc(C)c(C)c(NC(=O)CCc2c(C)nc(-c3ccccn3)nc2O)c1 [drawing 2037] | 1 to 25% | 0% |
| OCCNc1nc(-c2ccccn2)nc2scc(-c3ccccc3)c12 [drawing 2038] | 0% | 1 to 25% |
| COCC(C)Nc1nc(-c2ccccn2)nc2sc(C)c(-c3ccccc3)c12 (centres unmarked) [drawing 2039] | 76 to 100% | 76 to 100% |
| CCc1cc(NNC(=O)c2ccc(C#N)cc2)nc(-c2ccccn2)n1 [drawing 2040] | 76 to 100% | 76 to 100% |
| COCCCn1ccc(Nc2cc(C)nc(-c3ccccn3)n2)n1 [drawing 2041] | 0% | 26 to 50% |
| CC(O)CNc1nc(-c2ccccn2)nc2scc(-c3ccccc3)c12 (centres unmarked) [drawing 2042] | 1 to 25% | 26 to 50% |
| NC(=O)C1(CNc2nc(-c3ccccn3)nc3c2CCC3)CCCC1 [drawing 2043] | 1 to 25% | 26 to 50% |
| OCCOCCNc1nc(-c2ccccn2)nc2scc(-c3ccccc3)c12 [drawing 2044] | 1 to 25% | 1 to 25% |
| Cc1sc2nc(-c3ccccn3)nc(NCCCO)c2c1-c1ccccc1 [drawing 2045] | 1 to 25% | 1 to 25% |
| COC(=O)c1cccc(CN2CCC(CSc3ccccc3)C2)c1C#N (centres unmarked) [drawing 2046] | 0% | 26 to 50% |
| COC(=O)c1cc(NCc2nc(CC(C)C)no2)ccc1Cl [drawing 2047] | 1 to 25% | 26 to 50% |
| Cc1cccc(CN(Cc2ccccn2)Cc2nccn2C)c1 [drawing 2048] | 1 to 25% | 26 to 50% |
| Cc1ccc(CN(Cc2ccco2)C(=O)c2oc3ccccc3c2C)cc1 [drawing 2049] | 0% | 1 to 25% |
| Cc1ccc(O)c(CN(C)Cc2nccn2Cc2ccccc2)n1 [drawing 2050] | 0% | 1 to 25% |
